Row | SMILES | CO2 permeability | N2 permeability | O2 permeability | H2 permeability | CH4 permeability
1 | *Oc1ccc(S(=O)(=O)c2ccc(Oc3c(C)cc(C(C)(C)c4cc(C)c(*)c(C)c4)cc3C)cc2C(O)(C(F)(F)F)C(F)(F)F)c(C(O)(C(F)(F)F)C(F)(F)F)c1 (repeat unit) | 30 Barrer | 1.5 Barrer | 8.5 Barrer | – | –
2 | *Cc1ccc(C*)c(C#N)c1 (repeat unit) | 0.301 Barrer | – | 0.0904 Barrer | 1.78 Barrer | –
3 | *C(=C(*)c1ccccc1)c1ccccc1 (repeat unit) | 6600 Barrer | 2720 Barrer | 3600 Barrer | – | 3700 Barrer
4 | *c1ccc(N2C(=O)c3ccc([Si](C)(C)c4ccc5c(c4)C(=O)N(*)C5=O)cc3C2=O)cc1 (repeat unit) | 2.75 Barrer | 0.105 Barrer | 0.6 Barrer | 9.4 Barrer | 0.064 Barrer
5 | *Oc1cc2c(cc1O*)C(=O)N(c1c(C)c(C)c(-n3c(=O)c4cc5oc6cc7c(cc6oc5cc4c3=O)C3(C(C)C)c4ccccc4C7(C(C)C)c4cc(*)c(*)cc43)c(C)c1C)C2=O (repeat unit) | – | 87.4 Barrer | 542 Barrer | 3430 Barrer | 83.7 Barrer
6 | *Oc1c(C)cc(*)c([N+](=O)[O-])c1C (repeat unit) | 40.4 Barrer | 2.4 Barrer | 11.5 Barrer | – | 2.4 Barrer
7 | *Oc1ccc(C(C)(C)c2ccc(OC(=O)c3cc(C(*)=O)cc(C(C)(C)C)c3)c(C)c2)cc1C (repeat unit) | 8 Barrer | 0.393 Barrer | 2.37 Barrer | 27.1 Barrer | 0.4 Barrer
8 | *c1ccc(Oc2ccc(-c3ccc(-c4ccc(Oc5ccc(N6C(=O)c7ccc(C(c8ccc9c(c8)C(=O)N(*)C9=O)(C(F)(F)F)C(F)(F)F)cc7C6=O)cc5)c(C(F)(F)F)c4)s3)cc2C(F)(F)F)cc1 (repeat unit) | 45.3 Barrer | 1.78 Barrer | 11.7 Barrer | – | 1.68 Barrer
9 | *[Si](C)(C)CCCCCC[Si](*)(C)C (repeat unit) | – | 81 Barrer | 182 Barrer | – | –
10 | *Oc1c(C)cc(C(c2cc(C)c(Oc3ccc(S(=O)(=O)c4ccc(*)cc4)cc3)c(C)c2)(C(F)(F)F)C(F)(F)F)cc1C (repeat unit) | 72 Barrer | 4 Barrer | 18 Barrer | – | 3 Barrer
11 | *c1c(C)cc(-c2cc(C)c(N3C(=O)c4cc5c(cc4C3=O)C3(C(C)C)c4ccccc4C5(C(C)C)c4cc5c(cc43)C(=O)N(*)C5=O)c3ccccc23)c2ccccc12 (repeat unit) | 2910 Barrer | 145 Barrer | 550 Barrer | 2170 Barrer | 190 Barrer
12 | *C(=C(*)c1ccc2c(ccc3ccccc32)c1)c1ccccc1 (repeat unit) | 5300 Barrer | 650 Barrer | 1300 Barrer | 2500 Barrer | 1450 Barrer
13 | *C(=C(*)c1ccc2c(c1)C(C)(C)CCC2(C)C)c1ccccc1 (repeat unit) | 11400 Barrer | 2700 Barrer | 3900 Barrer | 7700 Barrer | 6600 Barrer
14 | *c1cccc(C(c2cccc(-c3nnc(*)n3-c3ccc(O)cc3)c2)(C(F)(F)F)C(F)(F)F)c1 (repeat unit) | 66.3 Barrer | 2.37 Barrer | 12.5 Barrer | – | 1.41 Barrer
15 | *Oc1ccc(C(c2ccc(Oc3c(F)c(F)c(COC(C4CCCC(C(OCc5c(F)c(F)c(*)c(F)c5F)(C(F)(F)F)C(F)(F)F)C4)(C(F)(F)F)C(F)(F)F)c(F)c3F)cc2)(C(F)(F)F)C(F)(F)F)cc1 (repeat unit) | 12 Barrer | 0.9 Barrer | 3.8 Barrer | 28 Barrer | 0.55 Barrer
16 | *C(=C(*)c1ccc2c(c1)C(C)(C)CC2(C)C)c1cc(F)cc(F)c1 (repeat unit) | 36100 Barrer | 13100 Barrer | 15200 Barrer | 28500 Barrer | 29100 Barrer
17 | *CC(*)c1ccc(C[Si](C)(C)C)cc1 (repeat unit) | 79.8 Barrer | – | 19.9 Barrer | 54 Barrer | 7.8 Barrer
18 | *c1ccc2c(c1)Oc1ccc(C3(c4ccc5c(c4)Oc4ccc(*)cc4O5)c4ccccc4-c4ccccc43)cc1O2 (repeat unit) | 26.6 Barrer | 1.04 Barrer | 5.68 Barrer | – | 0.56 Barrer
19 | *Oc1ccc(Oc2ccc3c(c2)-c2nc4cc(Oc5ccc6nc7n(c6c5)C(=O)c5cc(*)ccc5-7)ccc4n2C3=O)cc1 (repeat unit) | – | 0.036 Barrer | 0.23 Barrer | 5.34 Barrer | –
20 | *c1ccc(-c2nc3cc(-c4ccc5[nH]c(*)nc5c4)ccc3[nH]2)c(Br)c1 (repeat unit) | – | – | 0.006 Barrer | 0.38 Barrer | –
21 | *OC1OC(CO[N+](=O)[O-])C(OC2OC(O[N+](=O)[O-])C(O*)C(O)C2O[N+](=O)[O-])C(O)C1O[N+](=O)[O-] (repeat unit) | – | 0.12 Barrer | 0.6 Barrer | 2 Barrer | –
22 | *CC(*)(C)C(=O)OCCOCCOCCOCC (repeat unit) | 74.4 Barrer | 2 Barrer | 3.9 Barrer | – | 4.8 Barrer
